Measurements: patent US9980943B2, “Methods of treating muscular dystrophy” (BOARD OF REGENTS OF THE NEVADA SYSTEM OF HIGHER EDUCATION, …, priority 2013, dated 2018)
Where two headings read alike, the source gives them in different places.

Columns and labels:
Type in all cases: cell-based, mouse
[1] = system: β-galactosidase in CMV-LacZ C2C12 myotubes; assay: CMV-LacZ secondary screen in C2C12 myotubes (β-Gal stabilizing assay); conditions: for fold induction at 5 µM / fold induction at 10 µM / fold induction at 20 µM / fold induction at 40 µM: Mus musculus; for fold induction at 5 µM: C2C12, read-out: CMV-LACZ in Myotubes, signal relative to DMSO, 5 uM; for fold induction at 5 µM / fold induction at 10 µM / fold induction at 20 µM / fold induction at 40 µM / CMV-LACZ in Myotubes, signal relative to DMSO: C2C12 CMV-LacZ myotubes, fold relative to DMSO; for fold induction at 10 µM: C2C12, read-out: CMV-LACZ in Myotubes, signal relative to DMSO, 10 uM; for fold induction at 20 µM: C2C12, read-out: CMV-LACZ in Myotubes, signal relative to DMSO, 20 uM; for fold induction at 40 µM: C2C12, read-out: CMV-LACZ in Myotubes, signal relative to DMSO, 40 uM; for CMV-LACZ in Myotubes (β-galactosidase activity relative to DMSO): CMV-LacZ C2C12 myotubes, 96-well format
How it was run: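 Stable CMV-LacZ C2C12 clone; six-point curve 0.5–40 μM; duplicates.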

[2] = system: α7 integrin (LacZ reporter in α7+/LacZ myotubes); assay: Myotube α7 integrin FDG assay (Burkin assay in myotubes, 96-well); conditions: myotubes; for fold induction at 0.5 µM / fold induction at 1 µM / fold induction at 5 µM / fold induction at 10 µM / fold induction at 20 µM / fold induction at 40 µM: Mus musculus, Myotube
[3] = system: α7 integrin (LacZ reporter in α7βgal+/− myoblasts); assay: Myoblast α7+/LacZ integrin FDG assay (Burkin assay in myoblasts, 96-well); conditions: α7+/LacZ myoblasts, 96-well; for fold induction at 0.5 µM / fold induction at 1 µM / fold induction at 5 µM / fold induction at 10 µM / fold induction at 20 µM / fold induction at 40 µM: Mus musculus, Myoblast, 48 h
[4] = 0.5 uM, read-out: Burkin Assay in Myotubes, α7 integrin LacZ reporter signal relative to DMSO
[5] = 1 uM, read-out: Burkin Assay in Myotubes, α7 integrin LacZ reporter signal relative to DMSO
[6] = 5 uM, read-out: Burkin Assay in Myotubes, α7 integrin LacZ reporter signal relative to DMSO
[7] = 10 uM, read-out: Burkin Assay in Myotubes, α7 integrin LacZ reporter signal relative to DMSO
[8] = 20 uM, read-out: Burkin Assay in Myotubes, α7 integrin LacZ reporter signal relative to DMSO
[9] = 40 uM, read-out: Burkin Assay in Myotubes, α7 integrin LacZ reporter signal relative to DMSO
[10] = 0.5 uM, read-out: Burkin Assay in Myoblasts, signal relative to DMSO
[11] = 1 uM, read-out: Burkin Assay in Myoblasts, signal relative to DMSO
[12] = 5 uM, read-out: Burkin Assay in Myoblasts, signal relative to DMSO
[13] = 10 uM, read-out: Burkin Assay in Myoblasts, signal relative to DMSO
[14] = 20 uM, read-out: Burkin Assay in Myoblasts, signal relative to DMSO
[15] = 40 uM, read-out: Burkin Assay in Myoblasts, signal relative to DMSO

COc1cc(C)c(NC(=O)COc2ccc3c(c2)OCO3)cc1C [MLS001223425-01]
fold induction at 5 µM [1]: 0.956 | fold induction at 10 µM [1]: 1.04 | fold induction at 20 µM [1]: 0.979 | fold induction at 40 µM [1]: 1.01 | fold induction at 0.5 µM [2, 4]: 1.08 | fold induction at 1 µM [2, 5]: 1.22 | fold induction at 5 µM [2, 6]: 0.914 | fold induction at 10 µM [2, 7]: 1.38 | fold induction at 20 µM [2, 8]: 1.14 | fold induction at 40 µM [2, 9]: 1.18 | fold induction at 0.5 µM [3, 10]: 1.06 | fold induction at 1 µM [3, 11]: 1.08 | fold induction at 5 µM [3, 12]: 1.06 | fold induction at 10 µM [3, 13]: 1.15 | fold induction at 20 µM [3, 14]: 1.22 | fold induction at 40 µM [3, 15]: 1.13

COc1ccccc1C(=O)Nc1nc2cc3c(cc2s1)OCO3 [MLS000419555-01]
fold induction at 5 µM [1]: 1.22 | fold induction at 10 µM [1]: 1.21 | fold induction at 20 µM [1]: 1.22 | fold induction at 40 µM [1]: 1.22 | fold induction at 0.5 µM [2, 4]: 1.05 | fold induction at 1 µM [2, 5]: 1.02 | fold induction at 5 µM [2, 6]: 1.15 | fold induction at 10 µM [2, 7]: 1.09 | fold induction at 20 µM [2, 8]: 1.01 | fold induction at 40 µM [2, 9]: 1.02 | fold induction at 0.5 µM [3, 10]: 1.19 | fold induction at 1 µM [3, 11]: 1.2 | fold induction at 5 µM [3, 12]: 1.07 | fold induction at 10 µM [3, 13]: 1.03 | fold induction at 20 µM [3, 14]: 0.948 | fold induction at 40 µM [3, 15]: 0.797

Cc1ccc(C(=O)C(C)OC(=O)CNC(=O)c2ccc(Br)o2)cc1 (stereo not shown) [MLS001160885-01]
CMV-LACZ in Myotubes, signal relative to DMSO ([1]; 5 uM): 1.167 | CMV-LACZ in Myotubes, signal relative to DMSO ([1]; 10 uM): 0.9009 | CMV-LACZ in Myotubes, signal relative to DMSO ([1]; 20 uM): 0.9095 | CMV-LACZ in Myotubes, signal relative to DMSO ([1]; 40 uM): 0.8319 | Burkin Assay in Myotubes, α7 integrin LacZ reporter signal relative to DMSO ([2]; 0.5 uM): 1 | Burkin Assay in Myotubes, α7 integrin LacZ reporter signal relative to DMSO ([2]; 1 uM): 0.9569 | Burkin Assay in Myotubes, α7 integrin LacZ reporter signal relative to DMSO ([2]; 5 uM): 1.108 | Burkin Assay in Myotubes, α7 integrin LacZ reporter signal relative to DMSO ([2]; 10 uM): 1.146 | Burkin Assay in Myotubes, α7 integrin LacZ reporter signal relative to DMSO ([2]; 20 uM): 1.018 | Burkin Assay in Myotubes, α7 integrin LacZ reporter signal relative to DMSO ([2]; 40 uM): 0.92 | Burkin Assay in Myoblasts, signal relative to DMSO ([3]; 0.5 uM): 1.05 | Burkin Assay in Myoblasts, signal relative to DMSO ([3]; 1 uM): 0.9356 | Burkin Assay in Myoblasts, signal relative to DMSO ([3]; 5 uM): 0.9402 | Burkin Assay in Myoblasts, signal relative to DMSO ([3]; 10 uM): 0.9147 | Burkin Assay in Myoblasts, signal relative to DMSO ([3]; 20 uM): 1.021 | Burkin Assay in Myoblasts, signal relative to DMSO ([3]; 40 uM): 0.7914

NC(=O)c1nsc(C(=O)N(c2ccccc2)C(C(=O)NCc2ccc(F)cc2)c2ccc(O)cc2)c1N (stereo not shown) [MLS001219621-01]
CMV-LACZ in Myotubes (β-galactosidase activity relative to DMSO) ([1]; 5 uM): 0.9491 | CMV-LACZ in Myotubes (β-galactosidase activity relative to DMSO) ([1]; 10 uM): 1.063 | CMV-LACZ in Myotubes (β-galactosidase activity relative to DMSO) ([1]; 20 uM): 1.132 | CMV-LACZ in Myotubes (β-galactosidase activity relative to DMSO) ([1]; 40 uM): 1.29 | Burkin Assay in Myotubes (signal relative to DMSO) ([2]; 0.5 uM): 0.9394 | Burkin Assay in Myotubes (signal relative to DMSO) ([2]; 1 uM): 0.8603 | Burkin Assay in Myotubes (signal relative to DMSO) ([2]; 5 uM): 0.8883 | Burkin Assay in Myotubes (signal relative to DMSO) ([2]; 10 uM): 0.8616 | Burkin Assay in Myotubes (signal relative to DMSO) ([2]; 20 uM): 0.648 | Burkin Assay in Myotubes (signal relative to DMSO) ([2]; 40 uM): 0.4537 | Burkin Assay in Myoblasts, value relative to DMSO ([3]; 0.5 uM): 0.8642 | Burkin Assay in Myoblasts, value relative to DMSO ([3]; 1 uM): 0.8063 | Burkin Assay in Myoblasts, value relative to DMSO ([3]; 5 uM): 0.7249 | Burkin Assay in Myoblasts, value relative to DMSO ([3]; 10 uM): 0.7542 | Burkin Assay in Myoblasts, value relative to DMSO ([3]; 20 uM): 0.7884 | Burkin Assay in Myoblasts, value relative to DMSO ([3]; 40 uM): 0.5423

CCCOc1nc(SCCC)nc2c1cnn2-c1ccccc1 [MLS000737953-01]
CMV-LACZ in Myotubes, signal relative to DMSO ([1]; 5 uM): 0.8274 | CMV-LACZ in Myotubes, signal relative to DMSO ([1]; 10 uM): 1.224 | CMV-LACZ in Myotubes, signal relative to DMSO ([1]; 20 uM): 0.9478 | CMV-LACZ in Myotubes, signal relative to DMSO ([1]; 40 uM): 0.9096 | Burkin Assay in Myotubes, α7 integrin LacZ reporter signal relative to DMSO ([2]; 0.5 uM): 0.9665 | Burkin Assay in Myotubes, α7 integrin LacZ reporter signal relative to DMSO ([2]; 1 uM): 1.135 | Burkin Assay in Myotubes, α7 integrin LacZ reporter signal relative to DMSO ([2]; 5 uM): 1.241 | Burkin Assay in Myotubes, α7 integrin LacZ reporter signal relative to DMSO ([2]; 10 uM): 1.226 | Burkin Assay in Myotubes, α7 integrin LacZ reporter signal relative to DMSO ([2]; 20 uM): 1.007 | Burkin Assay in Myotubes, α7 integrin LacZ reporter signal relative to DMSO ([2]; 40 uM): 0.5339 | Burkin Assay in Myoblasts, signal relative to DMSO ([3]; 0.5 uM): 0.9 | Burkin Assay in Myoblasts, signal relative to DMSO ([3]; 1 uM): 0.9673 | Burkin Assay in Myoblasts, signal relative to DMSO ([3]; 5 uM): 1.003 | Burkin Assay in Myoblasts, signal relative to DMSO ([3]; 10 uM): 1.08 | Burkin Assay in Myoblasts, signal relative to DMSO ([3]; 20 uM): 1.149 | Burkin Assay in Myoblasts, signal relative to DMSO ([3]; 40 uM): 1.233

O=C(Nc1ccc(S(=O)(=O)Nc2nccs2)cc1)c1ccccc1OC(F)F [MLS002164687-01]
CMV-LACZ in Myotubes (β-galactosidase activity relative to DMSO) ([1]; 5 uM): 0.7625 | CMV-LACZ in Myotubes (β-galactosidase activity relative to DMSO) ([1]; 10 uM): 0.922 | CMV-LACZ in Myotubes (β-galactosidase activity relative to DMSO) ([1]; 20 uM): 0.968 | CMV-LACZ in Myotubes (β-galactosidase activity relative to DMSO) ([1]; 40 uM): 1.113 | fold induction at 0.5 µM ([2]; 0.5 uM, read-out: Burkin Assay in Myotubes (signal relative to DMSO)): 0.853 | fold induction at 1 µM ([2]; 1 uM, read-out: Burkin Assay in Myotubes (signal relative to DMSO)): 1 | fold induction at 5 µM ([2]; 5 uM, read-out: Burkin Assay in Myotubes (signal relative to DMSO)): 1.23 | fold induction at 10 µM ([2]; 10 uM, read-out: Burkin Assay in Myotubes (signal relative to DMSO)): 1.37 | fold induction at 20 µM ([2]; 20 uM, read-out: Burkin Assay in Myotubes (signal relative to DMSO)): 1.02 | fold induction at 40 µM ([2]; 40 uM, read-out: Burkin Assay in Myotubes (signal relative to DMSO)): 1.06 | fold induction at 0.5 µM ([3]; 0.5 uM, read-out: Burkin Assay in Myoblasts, value relative to DMSO): 0.775 | fold induction at 1 µM ([3]; 1 uM, read-out: Burkin Assay in Myoblasts, value relative to DMSO): 0.819 | fold induction at 5 µM ([3]; 5 uM, read-out: Burkin Assay in Myoblasts, value relative to DMSO): 0.695 | fold induction at 10 µM ([3]; 10 uM, read-out: Burkin Assay in Myoblasts, value relative to DMSO): 0.849 | fold induction at 20 µM ([3]; 20 uM, read-out: Burkin Assay in Myoblasts, value relative to DMSO): 0.838 | fold induction at 40 µM ([3]; 40 uM, read-out: Burkin Assay in Myoblasts, value relative to DMSO): 0.819

COc1ccccc1C(=O)NCCOc1ccc(C(C)(C)C)cc1 [MLS001179624-01]
CMV-LACZ in Myotubes, signal relative to DMSO ([1]; 5 uM): 0.8604 | CMV-LACZ in Myotubes, signal relative to DMSO ([1]; 10 uM): 0.8788 | CMV-LACZ in Myotubes, signal relative to DMSO ([1]; 20 uM): 0.452 | CMV-LACZ in Myotubes, signal relative to DMSO ([1]; 40 uM): 0.4965 | Burkin Assay in Myotubes, α7 integrin LacZ reporter signal relative to DMSO ([2]; 0.5 uM): 0.9052 | Burkin Assay in Myotubes, α7 integrin LacZ reporter signal relative to DMSO ([2]; 1 uM): 0.9709 | Burkin Assay in Myotubes, α7 integrin LacZ reporter signal relative to DMSO ([2]; 5 uM): 1.048 | Burkin Assay in Myotubes, α7 integrin LacZ reporter signal relative to DMSO ([2]; 10 uM): 1.104 | Burkin Assay in Myotubes, α7 integrin LacZ reporter signal relative to DMSO ([2]; 20 uM): 0.8903 | Burkin Assay in Myotubes, α7 integrin LacZ reporter signal relative to DMSO ([2]; 40 uM): 0.2183 | Burkin Assay in Myoblasts, signal relative to DMSO ([3]; 0.5 uM): 0.993 | Burkin Assay in Myoblasts, signal relative to DMSO ([3]; 1 uM): 0.9963 | Burkin Assay in Myoblasts, signal relative to DMSO ([3]; 5 uM): 0.9515 | Burkin Assay in Myoblasts, signal relative to DMSO ([3]; 10 uM): 0.9314 | Burkin Assay in Myoblasts, signal relative to DMSO ([3]; 20 uM): 0.879 | Burkin Assay in Myoblasts, signal relative to DMSO ([3]; 40 uM): 0.8828
